Measurements published in patent publication US20110257148A1, “NOVEL 1-ALKYL-3-HYDROXY-3-PHENYLAZETIDINE DERIVATIVES USEFUL AS MODULATORS OF CORTICAL CATECHOLAMINERGIC NEUROTRANSMISSION” (NSAB, FILIAL AF N[…] AB, SVERIGE, priority 2008, published 2011).
Where a name gives a salt, the structure may show the parent alone.

**Q.** For `CC(C)N1CC(O)(c2cc(F)cc(F)c2)C1` (as salt: fumaric acid salt), which melting point is on record?
**A.** 185 to 186 °C

**Q.** Which melting point does the source give for `CCCN1CC(O)(c2ccc(F)c(F)c2)C1` (as salt: fumaric acid salt) here?
**A.** 157 to 159 °C

**Q.** With `CCCN1CC(O)(c2cc(F)cc(F)c2)C1` (as salt: fumaric acid salt) as the compound, how does the melting point read?
**A.** 162 to 164 °C

**Q.** Which melting point does the source give for `CCCN1CC(O)(c2cc(F)cc(Cl)c2)C1` (as salt: fumaric acid salt) here?
**A.** 147 to 149 °C

**Q.** With `CCCN1CC(O)(c2cccc(F)c2F)C1` (as salt: fumaric acid salt) [Example 1, 3-(2,3-DIFLUOROPHENYL)-1-PROPYLAZETIDIN-3-OL] as the compound, how does the melting point read?
**A.** 161 to 165 °C

**Q.** For `CCCN1CC(O)(c2cccc(Cl)c2F)C1` (as salt: fumaric acid salt) [Example 6, 3-(3-Chloro-2-Fluorophenyl)-1-Propylazetidin-3-Ol], which melting point is on record?
**A.** 167 to 168 °C
